Target: T1, VHZ-GST (Homo sapiens, UniProt Q9BVJ7)
T1 construct: made in house
T1 sequence (Q9BVJ7 1-150): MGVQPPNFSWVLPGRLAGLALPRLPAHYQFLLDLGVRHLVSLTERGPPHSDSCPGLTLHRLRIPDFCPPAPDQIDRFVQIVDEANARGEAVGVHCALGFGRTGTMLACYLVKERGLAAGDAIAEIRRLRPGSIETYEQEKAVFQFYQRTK
Experiment: Tyrosine phosphatase assay (EnzChek kit, fluorogenic substrate)
Format: biochemical
Settings: 10 μM sodium orthovanadate added to the reaction; VHZ-GST 0.675 picomoles; fluorescence excitation/emission 358/452 nm
Experimental: The EnzChek kit (Invitrogen, R22065) is used. As per the manufacturer's protocol, the fluorogenic substrate is reconstituted in the assay wells with buffer; the desired potential PTPases (0.675 picomole for each protein: VHZ-GST, VHZ-GST+Phosphatase inhibitor, VHZ(C95S)-GST, and control GST) are added to the wells and incubated 30 min or 90 min respectively. The fluorescence is then quantified using a Gemini XPS microplate spectrofluorometer (Molecular Devices). Fluorescence is measured at 10 minute intervals at the excitation and emission wavelengths of 358 and 452 nm, respectively. The phosphatase inhibitor sodium orthovanadate (10 μM) is used in the assay as a negative control.

[Na+].[Na+].[Na+].[O]=[V]([O-])([O-])[O-] [sodium orthovanadate]
PTPase activity of VHZ: completely abolished

Source: patent publication US9790503B2, “VHZ for diagnosis and treatment of cancer” (AGENCY FOR SCIENCE, TECHNOLOGY AND RESEARCH (A*STAR), priority 2007, dated 2017)
